# Tests used:
# [1] = tested on: patients with moderate to-high-risk atrial fibrillation; assay: ENGAGE-AF TIMI-48 phase 3 study of edoxaban versus warfarin in atrial fibrillation; conditions: subgroup whose CLCR had become <30 mL/min during the trial; edoxaban 15 mg (N = 349), warfarin dose adjusted (N = 367)
# [2] = Clinical pharmacological trial: pharmacokinetics after single-dose edoxaban 15 mg in individuals with renal functional impairment; conditions: for AUC(0-t) / concentration at 24 h / CL renal / Cmax / half-life / Tmax: human, in vivo, 15 mg; for AUC(0-t): AUC0-24h Geometric least squares mean; for AUC(0-t) / concentration at 24 h / CL renal / Cmax / half-life / Tmax / AUC0-24h Geometric least squares mean ratio to healthy adult / Cmax Geometric least squares mean ratio to healthy adult: single-dose 15 mg; for concentration at 24 h: C24h Geometric mean (plasma edoxaban concentration 24 hours after administration); for CL renal: CLR Geometric mean (renal clearance); for Cmax: Cmax Geometric least squares mean; for half-life: t1/2 Geometric least squares mean; for Tmax: tmax Least squares mean
# Procedure: Edoxaban was subjected to a clinical trial targeting individuals with renal functional impairment, in which edoxaban was studied for its pharmacokinetics in the individuals with renal functional impairment (Non-patent literature 4). In this clinical trial, 15 mg of edoxaban was administered at a single dose to each patient in five groups differing in the severity of renal functional impairment.
# [3] = tested on: NVAF patient with severe renal impairment or with normal renal functions or mild renal impairment; assay: Phase-III trial targeting NVAF patient with severe renal impairment; conditions: for Any bleeding events (adjudicated), incidence / Any bleeding events (adjudicated), number of subjects with events / Clinically relevant non-major bleeding events, incidence / Clinically relevant non-major bleeding events, number of subjects with events / Major bleeding events, incidence / Major bleeding events, number of subjects with events: 12 weeks
# [4] = healthy adult (CLCR > 80 mL/min)
# [5] = mild renal impairment (50 ≦ CLCR ≦ 80 mL/min)
# [6] = moderate renal impairment (30 ≦ CLCR < 50 mL/min)
# [7] = severe renal impairment (CLCR < 30 mL/min, nondialyzed)
# [8] = individuals with severe renal impairment
# [9] = Normal/MiRI (CLCR 50 mL/min or higher), high-dose 60 mg once a day
# [10] = Normal/MiRI (CLCR 50 mL/min or higher), low-dose 30 mg once a day
# [11] = SRI (CLCR 15 to <30 mL/min), edoxaban 15 mg once a day
# [12] = any of the treatment groups (SRI 15 mg, Normal/MiRI 30 mg, 60 mg)
smiles,measurement,setting,value
"CN1CCc2nc(C(=O)N[C@@H]3C[C@@H](C(=O)N(C)C)CC[C@@H]3NC(=O)C(=O)Nc3ccc(Cl)cn3)sc2C1 [edoxaban, N^1-(5-chloropyridin-2-yl)-N^2-((1S,2R,4S)-4-[(dimethylamino)carbonyl]-2-{[(5-methyl-4,5,6,7-tetrahydrothiazolo[5,4-c]pyridin-2-yl)carbonyl]amino}cyclohexyl)ethanediamide]",Fatal Bleed: # of events,[1],2
same,Fatal Bleed: Event Rate,[1],0.33 %/yr
same,Fatal SEE: # of events,[1],0
same,Fatal SEE: Event Rate,[1],0.00 %/yr
same,Fatal Stroke: # of events,[1],2
same,Fatal Stroke: Event Rate,[1],0.33 %/yr
same,"First Disabling or Fatal Stroke, Fatal SEE, LT or Fatal Bleed, or ACM: # of events",[1],19
same,"First Disabling or Fatal Stroke, Fatal SEE, LT or Fatal Bleed, or ACM: Event Rate",[1],3.10 %/yr
same,"First Stroke, SEE or TIA: # of events",[1],15
same,"First Stroke, SEE or TIA: Event Rate",[1],2.48 %/yr
same,"First Stroke, SEE, Major Bleed, or ACM: # of events",[1],39
same,"First Stroke, SEE, Major Bleed, or ACM: Event Rate",[1],6.46 %/yr
same,LT Bleed (life threatening): # of events,[1],2
same,LT Bleed (life threatening): Event Rate,[1],0.33 %/yr
same,AUC(0-t),[2]; [4],440 ng·h/mL
same,AUC(0-t),[2]; [5],569 ng·h/mL
same,AUC(0-t),[2]; [6],726 ng·h/mL
same,AUC(0-t),[2]; peritoneal dialysis patient,770 ng·h/mL
same,AUC(0-t),[2]; [7],661 ng·h/mL
same,concentration at 24 h,[2]; [4],2.34 ng/mL
same,concentration at 24 h,[2]; [5],3.44 ng/mL
same,concentration at 24 h,[2]; [6],5.9 ng/mL
same,concentration at 24 h,[2]; peritoneal dialysis patient,8.24 ng/mL
same,concentration at 24 h,[2]; [7],6.88 ng/mL
same,CL renal,[2]; [4],197 mL/min
same,CL renal,[2]; [5],121 mL/min
same,CL renal,[2]; [6],67.4 mL/min
same,CL renal,[2]; [7],32.5 mL/min
same,Cmax,[2]; [4],88.8 ng/mL
same,Cmax,[2]; [5],104 ng/mL
same,Cmax,[2]; [6],113 ng/mL
same,Cmax,[2]; peritoneal dialysis patient,83.8 ng/mL
same,Cmax,[2]; [7],83.6 ng/mL
same,half-life,[2]; [4],516 min
same,half-life,[2]; [5],489 min
same,half-life,[2]; [6],566 min
same,half-life,[2]; peritoneal dialysis patient,732 min
same,half-life,[2]; [7],1010 min
same,Tmax,[2]; [4],1.5 h
same,Tmax,[2]; [5],1.88 h
same,Tmax,[2]; [6],1.38 h
same,Tmax,[2]; peritoneal dialysis patient,2.37 h
same,Tmax,[2]; [7],1.7 h
same,Increase of C24 h compared with healthy adults,[2]; individuals with moderate renal impairment,2.52 times
same,Degree of the rise in C24 h relative to healthy adults,[2]; [8],approximately 3 times
same,Degree of the rise in C24 h relative to individuals with mild renal impairment,[2]; [8],approximately 2 times
same,AUC0-24h Geometric least squares mean ratio to healthy adult,[2]; [5],1.29
same,Cmax Geometric least squares mean ratio to healthy adult,[2]; [5],1.17
same,AUC0-24h Geometric least squares mean ratio to healthy adult,[2]; [6],1.65
same,Cmax Geometric least squares mean ratio to healthy adult,[2]; [6],1.27
same,AUC0-24h Geometric least squares mean ratio to healthy adult,[2]; peritoneal dialysis patient,1.75
same,Cmax Geometric least squares mean ratio to healthy adult,[2]; peritoneal dialysis patient,0.944
same,AUC0-24h Geometric least squares mean ratio to healthy adult,[2]; [7],1.50
same,Cmax Geometric least squares mean ratio to healthy adult,[2]; [7],0.941
same,Bleeding compared to the low dose or high dose in patients with Normal/miRI,[3]; 15 mg of edoxaban for 12 weeks in patients with SRI,did not result in a marked increase in bleeding
same,"Any bleeding events (adjudicated), incidence",[3]; [9],23.8%
same,"Any bleeding events (adjudicated), number of subjects with events",[3]; [9],5
same,"Clinically relevant non-major bleeding events, incidence",[3]; [9],4.8%
same,"Clinically relevant non-major bleeding events, number of subjects with events",[3]; [9],1
same,"Major bleeding events, incidence",[3]; [9],0.0%
same,"Major bleeding events, number of subjects with events",[3]; [9],0
same,"Any bleeding events (adjudicated), incidence",[3]; [10],22.7%
same,"Any bleeding events (adjudicated), number of subjects with events",[3]; [10],5
same,"Clinically relevant non-major bleeding events, incidence",[3]; [10],0%
same,"Clinically relevant non-major bleeding events, number of subjects with events",[3]; [10],0
same,"Major bleeding events, incidence",[3]; [10],0.0%
same,"Major bleeding events, number of subjects with events",[3]; [10],0
same,Difference in the incidence of any adjudicated bleeding events,[3]; SRI 15-mg edoxaban group vs Normal/MiRI low-dose (30-mg) or high-dose (60-mg) group,No notable difference
same,"Any bleeding events (adjudicated), incidence",[3]; [11],20.0%
same,"Any bleeding events (adjudicated), number of subjects with events",[3]; [11],10
same,"Clinically relevant non-major bleeding events, incidence",[3]; [11],0%
same,"Clinically relevant non-major bleeding events, number of subjects with events",[3]; [11],0
same,"Major bleeding events, incidence",[3]; [11],0.0%
same,"Major bleeding events, number of subjects with events",[3]; [11],0
same,Relation of the serious adverse events to the study drug,[3]; all serious adverse events were reported in the SRI 15-mg group,considered unrelated to the study drug
same,Deaths,[3]; any of the treatment groups,No deaths were reported
same,Adjudicated major bleeding events,[3]; [12],No adjudicated major bleeding events occurred
same,Thromboembolic events (cerebral infarction and systemic embolism),[3]; [12],No cerebral infarction or systemic embolism occurred

# From US20140371262A1, “PREVENTIVE AND/OR THERAPEUTIC AGENT FOR THROMBOEMBOLISM IN THROMBOEMBOLISM PATIENT WITH SEVERE RENAL IMPAIRMENT” (Daiichi Sankyo Company, Limited, priority 2011, published 2014)
